Experimental data as given in patent US20210284621A1 (priority 2018, published 2021).

Tests used:
[1] = Brain concentration and brain/plasma ratio after PO dose in mice; format: in vivo; conditions: mouse, 10 mg/kg PO, male C57BL/6 mice; for Kp at 4 h / Kp at 10 h: brain/plasma; for concentration at 4 h / concentration at 10 h / concentration at 24 h: brain
Description: Male C57BL/6 mice were administered an oral (P0) dose of 10 mg/kg of the indicated compound. The brain/plasma ratios of the indicated compounds were determined by standard methods, the results of which are provided in Table 11.

LPS-induced PBMCs = experiment: Inflammatory cytokine release from LPS-induced PBMCs (Luminex); format: cell-based, human; conditions: fold change from LPS-treated PBMCs, compounds 10 μM (DEX 1 μg/ml) 2 h, then LPS 0.1 μg/ml 24 h, negative = reduced
Outline: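 Human PBMCs from healthy donors pretreated 2 hours with compound at 10 μM (triplicate), then stimulated with 0.1 μg/ml LPS for 24 hours. Supernatant cytokines measured by magnetic Luminex; values given as fold change versus LPS-treated PBMCs, negative meaning reduction; cytotoxicity also assessed.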

[2] = OOR = out of standard curve range

Compound	Kp at 4 h [1]	Kp at 10 h [1]	concentration at 4 h [1] [ng/g]	concentration at 10 h [1] [ng/g]	concentration at 24 h [1] [ng/g]	IL17A (LPS-induced PBMCs) [fold change]	IL-1β (LPS-induced PBMCs) [fold change]	IL-4 (LPS-induced PBMCs) [fold change]	IL-6 (LPS-induced PBMCs) [fold change]	IL-8 (LPS-induced PBMCs) [fold change]	IL-10 (LPS-induced PBMCs) [fold change]	MCP-1 (LPS-induced PBMCs) [fold change]	TNFα (LPS-induced PBMCs) [fold change]	IL-12 (p70) (LPS-induced PBMCs; [2])	L-31 (LPS-induced PBMCs; [2])
CCCCCCC(C)(C)c1cc(O)c2c(c1)OC(C)(C)[C@@H]1CC=C(C(=O)OC(C)C)C[C@@H]21 [Compound 29, Isopropyl (6aR,10aR)-1-hydroxy-6,6-dimethyl-3-(2-methyloctan-2-yl)-6a,7,10,10a-tetrahydro-6H-benzo[c]chromene-9-carboxylate]	0.00637	0.106	1.72	7.93	0	–	–	–	–	–	–	–	–	–	–
CCCCCCC(C)(C)c1cc(O)c2c(c1)OC(C)(C)[C@@H]1CC=C(C(=O)NC(C)(C)CCO)C[C@@H]21 [Compound 15, (6aR,10aR)-1-Hydroxy-N-(4-hydroxy-2-methylbutan-2-yl)-6,6-dimethyl-3-(2-methyloctan-2-yl)-6a,7,10,10a-tetrahydro-6H-benzo[c]chromene-9-carboxamide]	0.139	0.331	107	50.4	0	−3.1	−5.9	−2.7	−107.7	−2.4	−299.9	−213.2	−75.9	OOR	OOR
